From patent publication US8877754B2, “Compounds, pharmaceutical compositions and uses thereof” (Boehringer Ingelheim International GmbH, priority 2010, dated 2014)

The molecules below were run against T1, human ACC2 (Homo sapiens, UniProt O00763) (assay: ACC2 assay, spectrophotometric 384 well assay (NADH-linked, coupled lactate dehydrogenase/pyruvate kinase)). Settings: hACC2 construct lacking the 128 N-terminal amino acids; 25° C., 340 nm, 15 minutes.
T1 construct: made in house; host or cells: insect cells, baculoviral expression system
T1 sequence (O00763 129-2458 limits assumed): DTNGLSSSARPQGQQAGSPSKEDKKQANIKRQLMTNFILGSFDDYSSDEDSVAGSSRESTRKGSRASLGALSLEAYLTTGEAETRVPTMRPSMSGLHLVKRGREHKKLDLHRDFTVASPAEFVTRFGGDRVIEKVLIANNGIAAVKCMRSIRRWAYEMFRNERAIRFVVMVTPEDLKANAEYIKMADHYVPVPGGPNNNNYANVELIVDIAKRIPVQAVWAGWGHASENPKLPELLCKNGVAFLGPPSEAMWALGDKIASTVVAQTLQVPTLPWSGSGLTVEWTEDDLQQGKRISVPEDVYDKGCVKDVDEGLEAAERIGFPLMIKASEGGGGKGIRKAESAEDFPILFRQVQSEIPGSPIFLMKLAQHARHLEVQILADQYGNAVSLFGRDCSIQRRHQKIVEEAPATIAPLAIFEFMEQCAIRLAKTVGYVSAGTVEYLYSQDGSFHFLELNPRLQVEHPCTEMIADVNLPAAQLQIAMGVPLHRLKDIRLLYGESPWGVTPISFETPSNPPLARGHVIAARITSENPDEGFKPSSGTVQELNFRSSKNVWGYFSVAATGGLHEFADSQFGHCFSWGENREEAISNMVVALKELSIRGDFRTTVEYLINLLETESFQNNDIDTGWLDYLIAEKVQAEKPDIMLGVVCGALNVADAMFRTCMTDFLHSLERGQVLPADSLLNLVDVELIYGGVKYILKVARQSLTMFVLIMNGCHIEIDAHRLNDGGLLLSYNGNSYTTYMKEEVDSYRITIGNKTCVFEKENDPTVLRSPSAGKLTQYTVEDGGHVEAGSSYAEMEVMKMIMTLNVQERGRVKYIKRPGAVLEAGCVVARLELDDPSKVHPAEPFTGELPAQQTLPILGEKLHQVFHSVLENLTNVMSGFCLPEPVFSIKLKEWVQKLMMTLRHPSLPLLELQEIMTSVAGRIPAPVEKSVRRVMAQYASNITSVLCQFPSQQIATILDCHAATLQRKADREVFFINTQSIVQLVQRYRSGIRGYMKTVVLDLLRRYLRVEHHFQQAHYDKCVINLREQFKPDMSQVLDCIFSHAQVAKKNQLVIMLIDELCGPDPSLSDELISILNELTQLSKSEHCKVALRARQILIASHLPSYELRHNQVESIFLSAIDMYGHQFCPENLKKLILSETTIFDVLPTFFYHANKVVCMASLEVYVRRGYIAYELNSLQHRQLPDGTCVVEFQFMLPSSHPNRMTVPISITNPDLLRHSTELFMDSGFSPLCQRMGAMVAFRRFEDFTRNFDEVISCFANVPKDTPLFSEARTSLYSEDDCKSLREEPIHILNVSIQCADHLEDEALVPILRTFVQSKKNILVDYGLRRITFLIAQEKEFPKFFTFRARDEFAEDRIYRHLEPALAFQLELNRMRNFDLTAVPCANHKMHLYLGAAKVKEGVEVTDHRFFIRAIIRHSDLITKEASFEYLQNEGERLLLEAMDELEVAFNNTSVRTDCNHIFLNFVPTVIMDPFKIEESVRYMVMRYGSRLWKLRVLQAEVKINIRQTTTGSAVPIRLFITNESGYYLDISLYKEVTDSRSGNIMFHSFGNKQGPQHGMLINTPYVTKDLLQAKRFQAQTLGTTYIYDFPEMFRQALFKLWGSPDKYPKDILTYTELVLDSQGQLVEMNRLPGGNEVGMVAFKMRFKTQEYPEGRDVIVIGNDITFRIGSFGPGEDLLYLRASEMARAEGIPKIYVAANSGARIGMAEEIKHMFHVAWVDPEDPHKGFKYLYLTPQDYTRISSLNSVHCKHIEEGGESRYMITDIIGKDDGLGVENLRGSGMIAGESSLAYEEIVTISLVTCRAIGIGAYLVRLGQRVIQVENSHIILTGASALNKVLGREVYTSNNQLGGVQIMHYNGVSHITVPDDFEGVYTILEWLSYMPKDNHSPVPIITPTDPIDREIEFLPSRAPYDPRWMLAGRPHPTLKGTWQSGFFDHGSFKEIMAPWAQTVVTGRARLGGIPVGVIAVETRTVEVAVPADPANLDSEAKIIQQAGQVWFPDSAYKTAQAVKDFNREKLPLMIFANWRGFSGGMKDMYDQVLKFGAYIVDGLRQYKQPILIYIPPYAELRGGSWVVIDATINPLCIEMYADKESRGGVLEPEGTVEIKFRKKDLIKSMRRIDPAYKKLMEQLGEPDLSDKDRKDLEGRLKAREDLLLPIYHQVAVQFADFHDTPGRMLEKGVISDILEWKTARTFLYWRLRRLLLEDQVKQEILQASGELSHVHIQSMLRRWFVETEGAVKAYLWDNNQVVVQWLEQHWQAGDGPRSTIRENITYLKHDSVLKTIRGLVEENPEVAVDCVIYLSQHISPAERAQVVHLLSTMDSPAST
Format: biochemical
Protocol: Spectrophotometric 384 Well Assay
Malonyl CoA formation by acetyl CoA carboxylases is stoichometrically linked to the consumption of ATP. ACC2 activity is measured in a NADH-linked kinetic method measuring ADP generated during the ACC reaction using a coupled lactate dehydrogenase/pyruvate kinase reaction.
For biological testing, a human ACC2 construct which lacks the 128 amino acids at the N-terminus for increased solubility (nt 385-6966 in Genbank entry AJ575592) is cloned. The protein is then expressed in insect cells using a baculoviral expression system. Protein purification is performed by anion exchange.
All compounds are dissolved in dimethyl sulfoxide (DMSO) to a concentration of 10 mM.
Assay reactions are then carried out in 384-well plates, with hACC2 in an appropriate dilution and at final assay concentrations (f.c.) of 100 mM Tris (pH 7.5), 10 mM trisodium citrate, 25 mM KHCO3, 10 mM MgCl2, 0.5 mg/mL BSA, 3.75 mM reduced L-glutathione, 15 U/mL lactate dehydrogenase, 0.5 mM phosphoenolpyruvate, 15 U/mL pyruvate kinase, compounds at different concentrations at final DMSO concentrations of 1%.
The enzymatic reaction is then started by addition of a mixture of NADH, acetyl Coenzyme A (both 200 μM f.c.) and ATP (500 uM f.c.). The decrease of the optical density (slope S) is then determined at 25° C. at a wavelength of 340 nm over 15 minutes in a spectrophotometric reader.
Each assay microtiter plate contains wells with vehicle instead of compound as controls for the non-inhibited enzyme (100% CTL; ‘HIGH’) and wells without acetyl-CoA as controls for non-specific NADH degradation (0% CTL; ‘LOW’). The slope S is used for calculation of % CTL=(S(compound)−S(‘LOW’))/(S(‘HIGH’)—S(‘LOW’))*100. Compounds will give values between 100% CTL (no inhibition) and 0% CTL (complete inhibition).
For IC50 value determination, the sample slope in the presence of the test compound after subtraction of the low controls (S(compound)−S(‘LOW’)) are used.
An IC50 value is derived from the compound slopes at different dosages after subtraction of the low controls (S(compound)−S(‘LOW’)) by non-linear regression curve fitting (equation y=(A+((B−A)/(1+((C/x)^D))))).

Row | SMILES | IC50 [nM]
1 | CCNC(=O)C(C)c1ccc(C#Cc2cnc(N3CCCCC3)nc2)cc1 (stereo not drawn) [Example 2.15] | 1500
2 | CCNC(=O)C(C)c1ccc(C#Cc2cnc(N3CC4CCCC4C3)nc2)cc1 (stereo not drawn) [Example 2.11] | 270
3 | CCNC(=O)C(C)c1ccc(C#Cc2cnc(NC3CCC3)nc2)cc1 (stereo not drawn) [Example 2.12] | 690
4 | CCNC(=O)C(C)c1ccc(C#Cc2ccc(OCCC(F)(F)F)cc2)cc1 (stereo not drawn) [Example 5.14] | 110
5 | CCNC(=O)C(C)c1ccc(C#Cc2cnc(NCCF)nc2)cc1 (stereo not drawn) [Example 2.9] | 2500
6 | CCOc1ccc(C#Cc2ccc(C(C)C(=O)NCC#N)cc2)cc1 (stereo not drawn) [Example 1.11] | 660
7 | CCOc1ccc(C#Cc2ccc(C(C)C(=O)Nc3ncccn3)cc2)cc1 (stereo not drawn) [Example 6.15] | 290
8 | CCOc1ccc(C#Cc2ccc(C(C)C(=O)Nc3cc(C)nn3C)cc2)cc1 (stereo not drawn) [Example 6.1, N-(2,5-Dimethyl-2H-pyrazol-3-yl)-2-[4-(4-ethoxy-phenylethynyl)-phenyl]-propionamide] | 230
9 | CCNC(=O)C(C)c1ccc(C#Cc2ccc(OCC(C)F)cc2)cc1 (stereo not drawn) [Example 5.19] | 250
10 | CCNC(=O)C(C)c1ccc(C#Cc2ccc(OCC3CC3(F)F)cc2)cc1 (stereo not drawn) [Example 5.20] | 90
11 | CCOc1ccc(C#Cc2ccc(C(C)C(=O)Nc3cncnc3)cc2)cc1 (stereo not drawn) [Example 6.5] | 60
12 | CCNC(=O)C(C)c1ccc(C#Cc2ccc(OC3CCOCC3)cc2)cc1 (stereo not drawn) [Example 5.2] | 1800
13 | CCOc1ccc(C#Cc2ccc(C(C)C(=O)NCc3ccno3)cc2)cc1 (stereo not drawn) [Example 6.18] | 18700
14 | CCNC(=O)C(C)c1ccc(C#Cc2cnc(N(C)C3CC3)nc2)cc1 (stereo not drawn) [Example 2.14] | 6800
15 | CCOc1ccc(C#Cc2ccc(C(C)C(=O)Nc3nnc(C)o3)cc2)cc1 (stereo not drawn) [Example 6.3] | 830
16 | CCOc1ccc(C#Cc2ccc(C(C)C(=O)NCc3ccn(C)n3)cc2)cc1 (stereo not drawn) [Example 6.22] | 1500
17 | CCOc1ccc(C#Cc2ccc(C(C)C(=O)NCC3CCOC3)cc2)cc1 (stereo not drawn) [Example 6.25] | 12800
18 | CCNC(=O)C(C)c1ccc(C#Cc2ccc(OCC(C)C)cc2)cc1 (stereo not drawn) [Example 5.3] | 240
19 | CCNC(=O)C(C)c1ccc(C#Cc2ccc(OCc3cncs3)cc2)cc1 (stereo not drawn) [Example 5.10] | 3700
20 | CCCNC(=O)C(C)c1ccc(C#Cc2ccc(OCC)cc2)cc1 (stereo not drawn) [Example 1.16] | 610
21 | CCNC(=O)C(C)c1ccc(C#Cc2ccc(OC)cc2)cc1 (stereo not drawn) [Example 4.1, N-Ethyl-2-[4-(4-methoxy-phenylethynyl)-phenyl]-propionamide] | 260
22 | CCNC(=O)C(C)c1ccc(C#Cc2ccc(OCCn3ccnc3)cc2)cc1 (stereo not drawn) [Example 5.18] | 1900
23 | CCOc1ccc(C#Cc2ccc(C(C)C(=O)NC3CCOCC3)cc2)cc1 (stereo not drawn) [Example 6.17] | 18700
24 | CCNC(=O)C(C)c1ccc(C#Cc2cnc(NCc3ccncc3)nc2)cc1 (stereo not drawn) [Example 2.16] | 7400
25 | CCNC(=O)C(C)c1ccc(C#Cc2cnc(NC(C)CC)nc2)cc1 (stereo not drawn) [Example 2.6] | 410

Row | SMILES | IC50 [nM]
26 | CCNC(=O)C(C)c1ccc(C#Cc2ccc(OCCc3cn[nH]c3)cc2)cc1 (stereo not drawn) [Example 5.17] | 930
27 | CCOc1ccc(C#Cc2ccc(CCC(=O)NC)cc2)cc1 [Example 1.1, 3-[4-(4-Ethoxy-phenylethynyl)-phenyl]-N-methyl-propionamide] | 4300
28 | CCNC(=O)C(C)c1ccc(C#Cc2ccc(OCCCOC)cc2)cc1 (stereo not drawn) [Example 5.12] | 440
29 | CCNC(=O)C(C)c1ccc(C#Cc2ccc(OC(CC)COC)cc2)cc1 (stereo not drawn) [Example 5.16] | 1400
30 | CCNC(=O)Cc1ccc(C#Cc2ccc(OCC)cc2)cc1 [Example 1.22] | 3600
31 | CCOc1ccc(C#Cc2ccc(C(C)C(=O)Nc3ccnn3C)cc2)cc1 (stereo not drawn) [Example 6.10] | 190
32 | CCOc1ccc(C#Cc2ccc(C(C)C(=O)NC(C)CC)cc2)cc1 (stereo not drawn) [Example 1.13] | 2800
33 | CCNC(=O)C(C)c1ccc(C#Cc2cnc(NC3CC3)nc2)cc1 (stereo not drawn) [Example 2.4] | 390
34 | CCNC(=O)C(C)c1ccc(C#Cc2ccc(OCc3ccco3)cc2)cc1 (stereo not drawn) [Example 5.1, N-Ethyl-2-{4-[4-(furan-2-ylmethoxy)-phenylethynyl]-phenyl}-propionamide] | 1500
35 | CCNC(=O)C(C)c1ccc(C#Cc2ccc(OCc3cnco3)cc2)cc1 (stereo not drawn) [Example 5.21] | 540
36 | CCOc1ccc(C#Cc2ccc(C(C)C(=O)Nc3ccn[nH]3)cc2)cc1 (stereo not drawn) [Example 6.6] | 3600
37 | CCNC(=O)C(C)c1ccc(C#Cc2cnc(NCc3ccccc3)nc2)cc1 (stereo not drawn) [Example 2.13] | 240
38 | CCCOc1ccc(C#Cc2ccc(C(C)(C)C(=O)NCC)cc2)cc1 [Example 1.8] | 2400
39 | CCNC(=O)C(C)c1ccc(C#Cc2ccc(OC(C)c3ccncc3)cc2)cc1 (stereo not drawn) [Example 5.8] | 1500
40 | CCNC(=O)C(C)c1ccc(C#Cc2ccc(OCCC3CC3)cc2)cc1 (stereo not drawn) [Example 5.5] | 200
41 | CCOc1ccc(C#Cc2ccc(C(C)C(=O)Nc3ccncn3)cc2)cc1 (stereo not drawn) [Example 6.2] | 520
42 | CCNC(=O)C(C)c1ccc(C#Cc2ccc(OCC)cc2)cc1 (stereo not drawn) [Example 1.5] | 90
43 | CCOc1ccc(C#Cc2ccc(C(C)C(=O)NCCOC)cc2)cc1 (stereo not drawn) [Example 1.12] | 9700
44 | CCNC(=O)C(C)c1ccc(C#Cc2cnc(NC(C)C)nc2)cc1 (stereo not drawn) [Example 2.1, N-Ethyl-2-[4-(2-isopropylamino-pyrimidin-5-ylethynyl)-phenyl]-propionamide] | 690
45 | CCCOc1ccc(C#Cc2ccc(C(C)(C)C(N)=O)cc2)cc1 [Example 1.19] | 29200
46 | CCNC(=O)C(C)c1ccc(C#Cc2ccc(OCCn3cccc3)cc2)cc1 (stereo not drawn) [Example 5.7] | 170
47 | CCOc1ccc(C#Cc2ccc(C(C)C(=O)Nc3ccn[nH]3)cc2)cc1 (stereo not drawn) [Example 6.20] | 8300
48 | CCOc1ccc(C#Cc2ccc(C(C)C(=O)Nc3ccnnc3)cc2)cc1 (stereo not drawn) [Example 6.12] | 130
49 | CCOc1ccc(C#Cc2ccc(CC(=O)N(C)C)cc2)cc1 [Example 1.21] | 30000

The remaining lines, values ahead:

Row | IC50 [nM] | SMILES
50 | 270 | CCCOc1cc(C#Cc2ccc(C(C)C(=O)NCC)cc2)ccn1 (stereo not drawn) [Example 7.10]
51 | 2100 | CCCCn1ccc(C#Cc2ccc(C(C)C(=O)NCC)cc2)cc1=O (stereo not drawn) [Example 7.35]
52 | 330 | CCCc1ccc(C#Cc2ccc(C(C)C(=O)NCC)cc2)cc1 (stereo not drawn) [Example 7.22]
53 | 1500 | CCNC(=O)C(C)c1ccc(C#Cc2ccc(CNc3ccccn3)cc2)cc1 (stereo not drawn) [Example 7.16]
54 | 70 | CCCOc1ccc(C#Cc2ccc(C(C)C(=O)NCC)cc2)cc1 (stereo not drawn) [Example 7.25]
55 | 2900 | CCNC(=O)C(C)c1ccc(C#Cc2ccnc(Oc3cncnc3)c2)cc1 (stereo not drawn) [Example 7.38]
56 | 2200 | CCNC(=O)C(C)c1ccc(C#Cc2ccc3c(c2)C(=O)CC3)cc1 (stereo not drawn) [Example 7.18]
57 | 1000 | CCNC(=O)C(C)c1ccc(C#Cc2cnn(Cc3ccccc3)c2)cc1 (stereo not drawn) [Example 7.12]
58 | 22500 | CCNC(=O)C(C)c1ccc(C#Cc2ccc(C(=O)Cn3cnc(C)c3)cc2)cc1 (stereo not drawn) [Example 7.21]
59 | 360 | CCNC(=O)C(C)c1ccc(C#Cc2ccc(OC(C)(C)C)cc2)cc1 (stereo not drawn) [Example 7.17]
60 | 5000 | CCNC(=O)C(C)c1ccc(C#Cc2cncc(OC)c2)cc1 (stereo not drawn) [Example 7.14]
61 | 7700 | CCNC(=O)C(C)c1ccc(C#Cc2ccc3[nH]nnc3c2)cc1 (stereo not drawn) [Example 7.19]
62 | 110 | CCNC(=O)C(C)c1ccc(C#Cc2ccc(OC3CCCC3)cc2)cc1 (stereo not drawn) [Example 7.46]
63 | 640 | CCNC(=O)C(C)c1ccc(C#Cc2cc(OCc3ccccc3)ncn2)cc1 (stereo not drawn) [Example 7.31]
64 | 490 | CCCOc1ccc(C#Cc2ccc(C(C)C(=O)NCC)cc2)cn1 (stereo not drawn) [Example 7.47]
65 | 220 | CCNC(=O)C(C)c1ccc(C#Cc2ccc(OC3CCCC3)nc2)cc1 (stereo not drawn) [Example 7.30]
66 | 250 | CCNC(=O)C(C)c1ccc(C#Cc2ccc(OC(C)C)nc2)cc1 (stereo not drawn) [Example 7.29]
67 | 510 | CCCOc1ccc(C#Cc2ccc(C(C)C(=O)NCC)cc2)c(OC)c1 (stereo not drawn) [Example 7.41]
68 | 3200 | CCCCOc1ccc(C#Cc2ccc(C(C)C(=O)NCC)cc2)nn1 (stereo not drawn) [Example 7.37]
69 | 10900 | CCNC(=O)C(C)c1ccc(C#Cc2ccc(COC)cc2)cc1 (stereo not drawn) [Example 7.27]
70 | 25700 | CCNC(=O)C(C)c1ccc(C#Cc2ccc(OC)c(OC)c2)cc1 (stereo not drawn) [Example 7.48]
71 | 60 | CCNC(=O)C(C)c1ccc(C#Cc2ccc(OC3CC3)cc2)cc1 (stereo not drawn) [Example 7.49]
72 | 1300 | CCNC(=O)C(C)c1ccc(C#Cc2ccc(C(C)C)cc2)cc1 (stereo not drawn) [Example 7.1, N-Ethyl-2-[4-(4-isopropyl-phenylethynyl)-phenyl]-propionamide]
